Laboratory results reported in patent publication EP4603105A1, “PHARMACEUTICAL COMPOSITION CONTAINING CYCLIC COMPOUND HAVING SELECTIVE KRAS INHIBITORY EFFECT AGAINST HRAS AND NRAS” (CHUGAI SEIYAKU KABUSHIKI KAISHA, priority 2022, dated 2024).
pIC50, pKd: −log10 of the molar value. Read-outs that look alike come from different tables or passages of the source.

What was measured:
[1] = target: GDP-bound KRAS wild-type protein (Homo sapiens, UniProt P01116); test: Binding to KRAS by surface plasmon resonance (SPR), dissociation constant KD
Sequence of GDP-bound KRAS wild-type protein (P01116 1-188 isoform P01116-2): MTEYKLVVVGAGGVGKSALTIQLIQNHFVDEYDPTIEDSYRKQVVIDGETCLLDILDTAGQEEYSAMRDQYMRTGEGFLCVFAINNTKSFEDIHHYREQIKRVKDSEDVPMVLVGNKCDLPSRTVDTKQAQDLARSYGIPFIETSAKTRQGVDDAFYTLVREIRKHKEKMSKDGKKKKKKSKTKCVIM
Outline: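 Each cycle, GDP-bound biotin-Avi RAS was captured (~100–300 RU), compound concentrations were injected low to high for 75 s each at 100 µL/min, then the chip was regenerated. Buffer: HBS pH 7.4, 10 mM MgCl2, 10 µM GDP, 1 mM DTT, 4% DMSO; 30°C. KD from a 1:1 binding model.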

[2] = target: GDP-bound NRAS wild-type protein (Homo sapiens, UniProt P01111); test: Binding to NRAS by surface plasmon resonance (SPR), KD and KD ratio to KRAS
Sequence of GDP-bound NRAS wild-type protein (P01111 whole entry): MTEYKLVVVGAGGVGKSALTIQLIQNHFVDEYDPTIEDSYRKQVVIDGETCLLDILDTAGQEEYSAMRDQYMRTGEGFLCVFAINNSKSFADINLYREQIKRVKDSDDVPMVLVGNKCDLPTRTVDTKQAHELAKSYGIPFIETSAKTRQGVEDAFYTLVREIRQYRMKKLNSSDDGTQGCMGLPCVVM
Outline: (§1)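 GDP-loaded biotinylated Avi-tag RAS proteins (E. coli-expressed) captured on a Biotin CAPture chip at ~100–300 RU; single-cycle kinetics at 30°C, 100 µL/min, 75 s injections of rising compound concentrations. HBS pH 7.4 running buffer with 1 mM DTT, 10 mM MgCl2, 10 µM GDP, 4% DMSO. KD from 1:1 binding fit.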

HRAS wild-type protein = HRAS wild-type protein (Homo sapiens, UniProt P01112); test: Binding to HRAS by surface plasmon resonance (SPR), KD and KD ratio to KRAS
Sequence of HRAS wild-type protein (P01112 whole entry): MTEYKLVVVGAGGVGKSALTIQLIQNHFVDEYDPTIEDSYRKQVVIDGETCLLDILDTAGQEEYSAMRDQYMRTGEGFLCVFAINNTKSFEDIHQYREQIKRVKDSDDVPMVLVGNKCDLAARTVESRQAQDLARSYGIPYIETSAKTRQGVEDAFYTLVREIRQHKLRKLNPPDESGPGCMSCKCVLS
Outline: as §1

[3] = test system: human lung cancer strain NCI-H441; test: NCI-H441 cell proliferation inhibitory activity (CellTiter-Glo, 4 days); assay type: cell-based; settings: read-out: NCl-H441 IC50
Outline: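 Readout: […] after the ATP-based reagent. Compound: serial dilutions in dimethyl sulfoxide.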

[4] = ratio of KD for GDP-bound NRAS wild-type protein to KD for KRAS
[5] = ratio of KD for HRAS wild-type protein to KD for KRAS
[6] = Single Cycle Kinetics, 1:1 binding model
[7] = ratio of KD with respect to GDP-bound NRAS wild-type protein to KD with respect to KRAS
[8] = ratio of KD with respect to HRAS wild-type protein to KD with respect to KRAS
[9] = 50% proliferation inhibitory concentration, four days

Row | Structure (SMILES) | pKd ([1]; Single Cycle Kinetics) | NRAS /KRAS [2, 4] | HRAS /KRAS (HRAS wild-type protein; [5]) | pIC50 ([3]; NCI-H441 cells, 4 days) | pKd [1, 6] | NRAS /KRAS [2, 7] | HRAS /KRAS (HRAS wild-type protein; [8]) | pIC50 [3, 9] | pKd ([1]; 1:1 binding model)
1 | CCC[C@H]1C(=O)N[C@@H]([C@@H](C)CC)C(=O)N(C2CC2)CC(=O)N(C)[C@H]2C/C=C\CCN(C2=O)[C@@H](Cc2ccc(C(F)(F)F)cc2)C(=O)N(C)CC(=O)N[C@@H](CCc2ccc(C(F)(F)F)c(OC)c2)C(=O)N2CC[C@H](OC)[C@H]2C(=O)N(C)C2(CCC2)C(=O)N(C)[C@@H](C2CCCC2)C(=O)N(C)[C@H](C(=O)N(C)C)CC(=O)N1C [PP3239] | 9.64 | A (a compound having 10 or more and less than 20 is denoted as A) | A (a compound having 10 or more and less than 20 is denoted as A) | 8.19 | – | – | – | – | –
2 | CC[C@H](C)[C@@H]1NC(=O)[C@H](CC)N(C)C(=O)C[C@@H](C(=O)N(C)C)N(C)C(=O)[C@H](C2CCCC2)N(C)C(=O)C2(CCC2)NC(=O)[C@@H]2CC(F)(F)CN2C(=O)[C@H](CCc2cc(F)c(C(F)(F)F)c(F)c2)NC(=O)CN(C)C(=O)[C@H](CC2CCCCC2)N2CC/C=C\C[C@@H](C2=O)N(C)C(=O)CN(C)C1=O [PP1462] | – | – | – | – | 9.92 | A (a compound having 10 or more and less than 20 is denoted as A) | A (a compound having 10 or more and less than 20 is denoted as A) | 7.56 | –
3 | CCCO[C@H](C)[C@@H]1NC(=O)[C@H](COCC)N(C)C(=O)C[C@@H](C(=O)N(C)CC)N(C)C(=O)[C@H](C2CCCC2)N(C)C(=O)C2(CC(C)(C)C2)NC(=O)[C@@H]2C[C@@H](OCC)CN2C(=O)[C@H](CCc2cc(F)c(C(F)(F)F)c(F)c2)NC(=O)CN(C)C(=O)[C@H](Cc2ccc(C)cc2)N2CC/C=C\C[C@@H](C2=O)N(C)C(=O)[C@@H]2CCCN2C1=O [PP2436] | – | A (a compound having 10 or more and less than 20 is denoted as A) | A (a compound having 10 or more and less than 20 is denoted as A) | 6.90 | – | – | – | – | 8.80
4 | CCC[C@H]1C(=O)N[C@@H](C2CCCC2)C(=O)N(C)CC(=O)N(C)[C@H]2C/C=C\CCN(C2=O)[C@@H](Cc2ccc(C)cc2)C(=O)N(C)CC(=O)N[C@@H](CCc2ccc(C(F)(F)F)c(Cl)c2)C(=O)N2CC3(CC3)C[C@H]2C(=O)N(C)C2(CCC2)C(=O)N(C)[C@@H](C2CCCC2)C(=O)N(C)[C@H](C(=O)N(C)C)CC(=O)N1C [PP3322] | 10.20 | A (a compound having 10 or more and less than 20 is denoted as A) | B (a compound having 3 or more and less than 10 is denoted as B) | 8.10 | – | – | – | – | –
5 | CCO[C@@H]1C[C@H]2C(=O)NC3(CCC3)C(=O)N(C)[C@@H](C(CC)CC)C(=O)N(C)[C@H](C(=O)N(C)C)CC(=O)N(C)[C@@H](CC)C(=O)N[C@@H]([C@@H](C)CC)C(=O)N(C)CC(=O)N(C)[C@H]3C/C=C\CCN(C3=O)[C@@H](Cc3ccc(C(F)(F)F)cc3)C(=O)N(C)CC(=O)N[C@@H](CCc3cc(F)c(C(F)(F)F)c(F)c3)C(=O)N2C1 [PP1200] | – | – | – | – | 9.70 | AA (a compound having 20 or more is denoted as AA) | A (a compound having 10 or more and less than 20 is denoted as A) | 7.72 | –
6 | CCC[C@H]1C(=O)N[C@@H]([C@@H](C)CC)C(=O)N2CCCC[C@H]2C(=O)N(C)[C@H]2C/C=C\CCN(C2=O)[C@@H](Cc2ccc(C)cc2)C(=O)N(C)CC(=O)N[C@@H](CCc2ccc(C(F)(F)F)c(OC)c2)C(=O)N2C[C@H](OCC)C[C@H]2C(=O)N(C)C2(CCC2)C(=O)N(C)[C@@H](C2CCCC2)C(=O)N(C)[C@H](C(=O)N(C)C)CC(=O)N1C [PP3273] | 9.30 | A (a compound having 10 or more and less than 20 is denoted as A) | B (a compound having 3 or more and less than 10 is denoted as B) | 7.47 | – | – | – | – | –
7 | CCC(CC)[C@H]1C(=O)N(C)[C@H](C(=O)N(C)C)CC(=O)N(C)[C@@H](COC)C(=O)N[C@@H]([C@@H](C)CC)C(=O)N(C2CC2)CC(=O)N(C)[C@H]2C/C=C\CCN(C2=O)[C@@H](CC2CCCCC2)C(=O)N(C)CC(=O)N[C@@H](CCc2cc(F)c(C(F)(F)F)c(F)c2)C(=O)N2C[C@H](OC(C)C)C[C@H]2C(=O)NC2(CC(C)(C)C2)C(=O)N1C [PP2515] | – | A (a compound having 10 or more and less than 20 is denoted as A) | A (a compound having 10 or more and less than 20 is denoted as A) | 6.42 | – | – | – | – | 8.29
8 | CCC[C@H]1C(=O)N[C@@H]([C@@H](C)CC)C(=O)N(C2CC2)CC(=O)N(C)[C@H]2C/C=C\CCN(C2=O)[C@@H](CC2CCCCC2)C(=O)N(C)CC(=O)N[C@@H](CCc2ccc(C(F)(F)F)c(OC)c2)C(=O)N2C[C@@H](C)C[C@H]2C(=O)N(C)C2(CCC2)C(=O)N(C)[C@@H](C2CCCC2)C(=O)N(C)[C@H](C(=O)N(C)C)CC(=O)N1C [PP2372] | – | A (a compound having 10 or more and less than 20 is denoted as A) | B (a compound having 3 or more and less than 10 is denoted as B) | 8.48 | – | – | – | – | 9.10
9 | CCO[C@@H]1C[C@H]2C(=O)OC3(CCC3)C(=O)N(C)[C@@H](C3CCCC3)C(=O)N(C)[C@H](C(=O)N(C)C)CC(=O)N(C)[C@@H]([C@@H](C)OC)C(=O)N[C@@H]([C@@H](C)CC)C(=O)N(C3CC3)CC(=O)N(C)[C@H]3C/C=C\CCN(C3=O)[C@@H](Cc3ccc(C(F)(F)F)cc3)C(=O)N(C)CC(=O)N[C@@H](CCc3ccc(C(F)(F)F)c(OC)c3)C(=O)N2C1 [PP3375] | 9.39 | A (a compound having 10 or more and less than 20 is denoted as A) | B (a compound having 3 or more and less than 10 is denoted as B) | 8.22 | – | – | – | – | –
10 | CC[C@H](C)[C@@H]1NC(=O)[C@H](CC)N(C)C(=O)C[C@@H](C(=O)N(C)C)N(C)C(=O)[C@H](C2CCCC2)N(C)C(=O)C2(CCC2)NC(=O)[C@@H]2CCCN2C(=O)[C@H](CCc2cc(F)c(C(F)(F)F)c(F)c2)NC(=O)CN(C)C(=O)[C@H](CC2CCC(F)(F)CC2)N2CC/C=C\C[C@@H](C2=O)N(C)C(=O)CN(C)C1=O [PP1461] | – | – | – | – | 9.57 | A (a compound having 10 or more and less than 20 is denoted as A) | A (a compound having 10 or more and less than 20 is denoted as A) | 6.92 | –
11 | CCC[C@H]1C(=O)N[C@@H]([C@@H](C)CC)C(=O)N(C2CC2)CC(=O)N(C)[C@H]2C/C=C\CCN(C2=O)[C@@H](CC2CCC(F)(F)CC2)C(=O)N(C)CC(=O)N[C@@H](CCc2cc(F)c(C(F)(F)F)c(F)c2)C(=O)N2C[C@H](OCC)C[C@H]2C(=O)NC2(CC(C)(C)C2)C(=O)N(C)[C@@H](C2CCCC2)C(=O)N(C)[C@H](C(=O)N(C)C)CC(=O)N1C [PP2566] | – | A (a compound having 10 or more and less than 20 is denoted as A) | B (a compound having 3 or more and less than 10 is denoted as B) | 7.75 | – | – | – | – | 9.24
12 | CCCO[C@@H]1C[C@H]2C(=O)NC3(CC(C)(C)C3)C(=O)N(C)[C@@H](C3CCCC3)C(=O)N(C)[C@H](C(=O)N(C)CC)CC(=O)N[C@@H](COCC)C(=O)N[C@@H]([C@@H](C)CC)C(=O)N(C3CC3)CC(=O)N(C)[C@H]3C/C=C\CCN(C3=O)[C@@H](Cc3ccc(C)cc3)C(=O)N(C)CC(=O)N[C@@H](CCc3cc(F)c(C(F)(F)F)c(F)c3)C(=O)N2C1 [PP3421] | 8.72 | A (a compound having 10 or more and less than 20 is denoted as A) | A (a compound having 10 or more and less than 20 is denoted as A) | 7.17 | – | – | – | – | –
13 | CCO[C@@H]1C[C@H]2C(=O)NC3(CCC3)C(=O)N(C)[C@@H](C3CCCC3)C(=O)N(C)[C@H](C(=O)N3CCOCC3)CC(=O)N(C)[C@@H](CC(C)C)C(=O)N[C@@H]([C@@H](C)CC)C(=O)N3CC[C@H]3C(=O)N(C)[C@H]3C[C@@H](C)[C@@H](C)CN(C3=O)[C@@H](Cc3ccc(C(F)(F)F)cc3)C(=O)N(C)CC(=O)N[C@@H](CCc3cc(F)c(C(F)(F)F)c(F)c3)C(=O)N2C1 [PP1355] | – | – | – | – | 9.80 | A (a compound having 10 or more and less than 20 is denoted as A) | B (a compound having 3 or more and less than 10 is denoted as B) | 7.99 | –
14 | CCO[C@@H]1C[C@H]2C(=O)NC3(CC(C)(C)C3)C(=O)N(C)[C@@H](C(CC)CC)C(=O)N(C)[C@H](C(=O)N(C)C)CC(=O)N(C)[C@@H](C(C)C)C(=O)N[C@@H]([C@@H](C)CC)C(=O)N(C)CC(=O)N(C)[C@H]3C/C=C\CCN(C3=O)[C@@H](CC3CCC(F)(F)CC3)C(=O)N(C)CC(=O)N[C@@H](CCc3ccc(C(F)(F)F)c(OC)c3)C(=O)N2C1 [PP2477] | – | A (a compound having 10 or more and less than 20 is denoted as A) | A (a compound having 10 or more and less than 20 is denoted as A) | 6.90 | – | – | – | – | 8.74
15 | CCCOC[C@H]1C(=O)N[C@@H]([C@@H](C)CC)C(=O)N(C)CC(=O)N(C)[C@H]2C/C=C\CCN(C2=O)[C@@H](Cc2ccc(C)cc2)C(=O)N(C)CC(=O)N[C@@H](CCc2ccc(C(F)(F)F)c(OC)c2)C(=O)N2C[C@H](OCC)C[C@H]2C(=O)NC2(CC(C)(C)C2)C(=O)N(C)[C@@H](C2CCCC2)C(=O)N(C)[C@H](C(=O)N(C)C)CC(=O)N1C [PP2449] | – | A (a compound having 10 or more and less than 20 is denoted as A) | A (a compound having 10 or more and less than 20 is denoted as A) | 8.11 | – | – | – | – | 10.21
